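In this assay, cells in 96-well plates receive the compound at five concentrations for 48 hours. Endpoints are linearly interpolated between the surrounding concentrations. TGI: concentration producing complete growth inhibition.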
What was measured:
Assay in all cases: DTP human tumour cell line panel, 48 h
OVCAR-4 ovarian = system: OVCAR-4 ovarian
MOLT-4 leukemia = system: MOLT-4 leukemia
786-0 renal = system: 786-0 renal
HCT-15 colon = system: HCT-15 colon
COLO 205 colon = system: COLO 205 colon
OVCAR-8 ovarian = system: OVCAR-8 ovarian
NCI-H522 lung = system: NCI-H522 lung
NCI-H460 lung = system: NCI-H460 lung
K-562 leukemia = system: K-562 leukemia
TK-10 renal = system: TK-10 renal
MDA-MB-231 breast = system: MDA-MB-231 breast
UACC-62 melanoma = system: UACC-62 melanoma
MDA-MB-435 = system: MDA-MB-435
HT29 colon = system: HT29 colon
SW-620 colon = system: SW-620 colon
SNB-75 CNS = system: SNB-75 CNS
UACC-257 melanoma = system: UACC-257 melanoma
CCRF-CEM leukemia = system: CCRF-CEM leukemia
HL-60(TB) leukemia = system: HL-60(TB) leukemia

| SMILES | TGI (OVCAR-4 ovarian) [µM] | TGI (MOLT-4 leukemia) [µM] | TGI (786-0 renal) [µM] | TGI (HCT-15 colon) [µM] | TGI (COLO 205 colon) [µM] | TGI (OVCAR-8 ovarian) [µM] | TGI (NCI-H522 lung) [µM] | TGI (NCI-H460 lung) [µM] | TGI (K-562 leukemia) [µM] | TGI (TK-10 renal) [µM] | TGI (MDA-MB-231 breast) [µM] | TGI (UACC-62 melanoma) [µM] | TGI (MDA-MB-435) [µM] | TGI (HT29 colon) [µM] | TGI (SW-620 colon) [µM] | TGI (SNB-75 CNS) [µM] | TGI (UACC-257 melanoma) [µM] | TGI (CCRF-CEM leukemia) [µM] | TGI (HL-60(TB) leukemia) [µM] |
| --- | --- | --- | --- | --- | --- | --- | --- | --- | --- | --- | --- | --- | --- | --- | --- | --- | --- | --- | --- |
| O=C1OCCC12CN(Cc1ccccc1)N=N2 (centres undefined) | > 100 | > 100 | > 100 | > 100 | > 100 | > 100 | > 100 | > 100 | > 100 | > 100 | > 100 | > 100 | > 100 | > 100 | > 100 | – | – | – | – |
| CC(SC(=S)N(C)C)C(=O)Nc1nnc(-c2ccc(Cl)cc2)o1 (centres undefined) | > 100 | 8.28 | 69.7 | > 100 | > 100 | > 100 | – | > 100 | > 100 | > 100 | > 100 | > 100 | > 100 | 51.9 | > 100 | > 100 | > 100 | – | – |
| Cn1c(=O)c2c(nc(N3CCOCC3)n2CCCNCC(O)c2ccc(O)c(O)c2)n(C)c1=O (centres undefined) | > 100 | > 100 | > 100 | > 100 | > 100 | > 100 | > 100 | > 100 | > 100 | > 100 | > 100 | > 100 | > 100 | > 100 | > 100 | > 100 | > 100 | > 100 | – |
| CC1OC1P(=O)(O)O (centres undefined) | > 100 | > 100 | > 100 | > 100 | > 100 | > 100 | – | > 100 | > 100 | > 100 | > 100 | > 100 | > 100 | > 100 | > 100 | > 100 | > 100 | > 100 | – |
| COc1c(N2CCCCC2)c2c(=O)c3ccccc3oc2c2cc(C)oc12 | > 100 | > 100 | > 100 | > 100 | 18.3 | > 100 | – | > 100 | > 100 | > 100 | 44.2 | 68.3 | > 100 | 38.6 | > 100 | 42.9 | > 100 | > 100 | 58 |
| CN(C)CCn1c2c(c3ccccc31)CCc1ccccc1-2 | 28.3 | 29.1 | 28.4 | 22.5 | 25.6 | 29.5 | 29.4 | 27.5 | – | 30.5 | 29.3 | 25.9 | 37.7 | 21.1 | 40.4 | – | 27.7 | 44.6 | – |
| OC1C2CCC3C2CC(C(O)(c2ccccc2)c2ccccc2)C13 (centres undefined) | > 100 | 74 | > 100 | > 100 | 37.2 | > 100 | > 100 | > 100 | > 100 | > 100 | > 100 | > 100 | > 100 | > 100 | > 100 | 43.9 | 95.6 | 95.1 | – |
| Nc1cc(N2CCOCC2)nc(=O)n1-c1ccccc1 | – | > 100 | > 100 | > 100 | > 100 | > 100 | – | > 100 | > 100 | – | – | > 100 | > 100 | > 100 | > 100 | > 100 | > 100 | > 100 | > 100 |
| O=C(N/C(=C\NC1=NCCS1)C(=O)N1CSC[C@@H]1C(=O)O)c1ccccc1 | > 100 | > 100 | > 100 | > 100 | > 100 | > 100 | – | > 100 | > 100 | > 100 | > 100 | > 100 | > 100 | > 100 | > 100 | > 100 | > 100 | > 100 | > 100 |
| COc1ccc(OC)c2sc(N3C(=O)/C(=C/c4ccc(SC)cc4)N=C3c3ccccc3)nc12 | 87.6 | 80.5 | > 100 | > 100 | > 100 | 92.6 | – | > 100 | > 100 | > 100 | > 100 | > 100 | 37.6 | 53.3 | > 100 | 43.6 | > 100 | 22.2 | 64.9 |
| CN(C)CCNC(=O)c1ccccc1Nc1c(Cl)cccc1Cl | 29.7 | 29.2 | 18.9 | 27.9 | 25.8 | 27.8 | – | – | 36.2 | 20.7 | – | 31.4 | – | 20 | 30.2 | 9.52 | 18.5 | 30.4 | 27 |
| CCOc1ccccc1NC(=O)CSc1nnc(Cc2ccccc2)o1 | 63.5 | 71.3 | 44.8 | 35.1 | 36.5 | 54.8 | 40.7 | 44.8 | > 100 | > 100 | – | 52.6 | – | > 100 | 37.2 | > 100 | 98.6 | > 100 | > 100 |
| O=S(=O)(Nc1nc2ccccc2nc1Nc1cccc2ccccc12)c1ccccc1 | 5.99 | – | 68.4 | – | – | > 100 | – | > 100 | > 100 | 28.9 | 43.9 | > 100 | > 100 | – | > 100 | 57.6 | > 100 | – | – |
| CCOC(=O)C1C(c2ccco2)C2(C#N)C(=N)OC1(C)C2(C#N)C#N (centres undefined) | – | > 100 | > 100 | > 100 | > 100 | > 100 | > 100 | – | > 100 | > 100 | > 100 | > 100 | > 100 | > 100 | > 100 | > 100 | > 100 | > 100 | – |

Source: PubChem BioAssay (NCI)
